Consider two molecules from patent US20110136990A1, “POLYMER DERIVATIVE OF DOCETAXEL, METHOD OF PREPARING THE SAME AND USES THEREOF” (priority 2008, published 2011).

What all share (type): in vivo
Data set [1] relates to human prostate cancer PC-3 cells. Description: Drug efficacy test using human prostate cancer PC-3 cells (tumor volume). The following applies: nude mice, PC-3 xenograft, 15 mg/kg, tail vein every four days, three times. As for the experimental part: Using the polymer derivative of docetaxel (PEG-pAsp-14DTX) obtained in Example 1, the following experiment was carried out. PC-3 cells were purchased from ATCC through Summit Pharmaceuticals International Corporation. PC-3 cells were cultured in a RPMI1640+10% FBS medium at 5% CO2 and 37° C., and grown to the cell number required for xenograft. The cells were suspended in physiological saline, and inoculated subcutaneously at the back of the male nude mice [Balb nu/nu, 5 week-old, Charles River Laboratories Japan, Inc.] to 3×10^6 cells/100 μl per mouse. Then, the nude mice were kept for 15 days, and drug administration was started when the tumor volume reached 81.6±5.0 mm^3 (mean±SE, in which SE represents the standard error, the same shall apply hereinafter). […] For the following four groups (n=8), changes in tumor volume and body weight over time were determined: (1) Control group (untreated), (2) 15 mg/kg of a DMSO solution of docetaxel group, (3) 15 mg/kg of PEG-pAsp-14DTX group, and (4) 20 mg/kg of PEG-pAsp-14DTX group (the dosage was the converted amount of docetaxel mg/kg/injection). […] For tumor volume, the major dimension (a mm) and the minor dimension (b mm) were measured with an electronic caliper [Mitsutoyo Corporation], and the volume was calculated according to the following equation. […]

Data set [2] is described as follows: Changes in body weight of mice bearing PC-3 cells. To be noted: nude mice bearing PC-3, 15 mg/kg, tail vein every four days, three times. On the procedure: Using the polymer derivative of docetaxel (PEG-pAsp-14DTX) obtained in Example 1, the following experiment was carried out. PC-3 cells were purchased from ATCC through Summit Pharmaceuticals International Corporation. PC-3 cells were cultured in a RPMI1640+10% FBS medium at 5% CO2 and 37° C., and grown to the cell number required for xenograft. The cells were suspended in physiological saline, and inoculated subcutaneously at the back of the male nude mice [Balb nu/nu, 5 week-old, Charles River Laboratories Japan, Inc.] to 3×10^6 cells/100 μl per mouse. Then, the nude mice were kept for 15 days, and drug administration was started when the tumor volume reached 81.6±5.0 mm^3 (mean±SE, in which SE represents the standard error, the same shall apply hereinafter). […] For the following four groups (n=8), changes in tumor volume and body weight over time were determined: (1) Control group (untreated), (2) 15 mg/kg of a DMSO solution of docetaxel group, (3) 15 mg/kg of PEG-pAsp-14DTX group, and (4) 20 mg/kg of PEG-pAsp-14DTX group (the dosage was the converted amount of docetaxel mg/kg/injection). […] For tumor volume, the major dimension (a mm) and the minor dimension (b mm) were measured with an electronic caliper [Mitsutoyo Corporation], and the volume was calculated according to the following equation.

Data set [3] can be described thus: Pharmacokinetic study in mice (plasma levels of DTX). The following applies: male Balb/c mice, tail vein, 10 mg/kg, 5 minutes to 48 hours. On the procedure: Ten mg in terms of DTX of the polymer derivative of docetaxel (PEG-pAsp-14DTX) obtained in Example 1 was precisely weighed into a sample vial, to which 1 ml of purified water was added to suspend the sample. After stirring at 4° C. for a whole day and night, it was sonicated under ice cooling for 10 minutes using a Biodisruptor (Nihon Seiki Seisakusho, High Power Unit), filtered with a 0.22 μm filter [Millipore, Millex (registered trademark) GP PES], and the filtrate was collected. The filtrate was gel-filtered (GE Healthcare Bioscience, PD-10, the elution solution: a 10% sucrose solution), and the collected polymer micelle fraction (the mean particle size 120 nm) was used in the following experiment. […]
DTX in the polymer-bound form was hydrolyzed to a free form, and total DTX was determined as follows. […] This was loaded in a HPLC sample vial and analyzed by HPLC under the following condition. The content of DTX was calculated based on the ratio of the peak area of DTX relative to the peak area derived from paclitaxel, which was used as the internal standard.
To 50 μl of the collected plasma, 20 μl of paclitaxel/50% acetonitrile (20 μg/mL) as the internal standard and 300 μl of ethyl acetate were added in this order, and stirred vigorously for one minute at room temperature. […] This was loaded in a HPLC sample vial and analyzed by HPLC […]

As for `CC(=O)O[C@@]12CO[C@@H]1C[C@H](O)[C@@]1(C)C(=O)[C@H](O)C3=C(C)[C@@H](OC(=O)[C@H](O)[C@@H](NC(=O)OC(C)(C)C)c4ccccc4)C[C@@](O)([C@@H](OC(=O)c4ccccc4)[C@H]21)C3(C)C` [DMSO solution of docetaxel, docetaxel], the “tumor growth compared to control group” value in data set [1] is “tumor growth was markedly suppressed”. For the same molecule, in data set [2], the “reduction in body weight” value is reported as “marked reduction in body weight”.
For `CC(=O)O[C@@]12CO[C@@H]1C[C@H](O)[C@@]1(C)C(=O)[C@H](O)C3=C(C)[C@@H](OC(=O)[C@H](O)[C@@H](NC(=O)OC(C)(C)C)c4ccccc4)C[C@@](O)([C@@H](OC(=O)c4ccccc4)[C@H]21)C3(C)C` [docetaxel solution, docetaxel], in data set [3], the “changes in plasma levels with time (docetaxel)” value is listed as “disappears rapidly”.
